Laboratory results from US12344623B2, “Thiazolopyridine derivatives as adenosine receptor antagonists” (Merck Patent GmbH, priority 2019, dated 2025).
pIC50: −log10 of the molar value. Read-outs that look alike come from different tables or passages of the source.

What was measured:
Format in all cases: cell-based
human A2B receptor = molecular target: T1, human A2B receptor (Homo sapiens, UniProt P29275); assay: Functional A2B receptor activity, recombinant HEK293 cells, cAMP (HTRF), agonist NECA; details: read-out: Functional A2B receptor activity, HEK293, cAMP, IC50
T1 construct: expressed in transfected cells; host or cells: HEK293
T1 sequence (P29275 1-332): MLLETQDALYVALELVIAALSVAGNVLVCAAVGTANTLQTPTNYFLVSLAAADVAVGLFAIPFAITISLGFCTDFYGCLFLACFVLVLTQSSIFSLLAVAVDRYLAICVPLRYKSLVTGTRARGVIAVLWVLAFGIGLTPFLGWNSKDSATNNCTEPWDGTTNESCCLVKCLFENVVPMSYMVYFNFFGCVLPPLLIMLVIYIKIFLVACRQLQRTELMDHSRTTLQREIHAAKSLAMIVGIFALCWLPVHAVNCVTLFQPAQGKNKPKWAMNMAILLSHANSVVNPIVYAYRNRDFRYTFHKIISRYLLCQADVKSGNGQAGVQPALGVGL
Method: (§1) The functional activities of human A2A, A2B, A1 and A3 receptors were determined by quantification of cAMP, being the second messenger for adenosine receptors.
(§2) Cells were seeded into 384-well plates, forskolin, test compounds and agonists (CPA for A1- and IB-MECA for A3-receptor) were added. After 30 min incubation, HTRF reagents (cAMP dynamic 2, Cis Bio) were added and the cellular cAMP levels were determined using the ENVISION (Perkin Elmer) plate reader. Obtained raw data were normalized against the inhibitor control and the neural control (DMSO) and the normalized data were fitted using GeneData software.

human A3 receptor = molecular target: T2, human A3 receptor (Homo sapiens, UniProt P0DMS8); assay: Functional A3 receptor activity, recombinant CHO cells, cAMP (HTRF), forskolin, agonist IB-MECA; details: recombinant CHO cells, forskolin, agonist IB-MECA, read-out: Functional A3 receptor activity, CHO, cAMP, IC50
T2 construct: expressed in transfected cells; host or cells: CHO
T2 sequence (P0DMS8 1-318): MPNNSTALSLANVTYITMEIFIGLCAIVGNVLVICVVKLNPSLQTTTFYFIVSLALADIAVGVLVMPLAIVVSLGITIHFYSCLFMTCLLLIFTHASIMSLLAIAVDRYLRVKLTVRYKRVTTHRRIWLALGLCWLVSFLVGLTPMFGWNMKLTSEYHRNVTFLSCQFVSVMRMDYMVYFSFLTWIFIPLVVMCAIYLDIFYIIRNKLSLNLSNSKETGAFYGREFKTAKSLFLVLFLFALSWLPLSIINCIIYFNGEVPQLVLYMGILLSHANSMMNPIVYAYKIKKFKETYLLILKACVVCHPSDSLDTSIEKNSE
Method: as §1
(§3) For human A1 and A3 receptors, recombinant CHO cells, expressing either A1 or A3-receptor, were used. As both receptors couple to Gi proteins, the assay protocol was adapted:
as §2

human A1 receptor = molecular target: T3, human A1 receptor (Homo sapiens, UniProt P30542); assay: Functional A1 receptor activity, recombinant CHO cells, cAMP (HTRF), forskolin, agonist CPA; details: recombinant CHO cells, forskolin, agonist CPA; read-out: Functional A1 receptor activity, CHO, cAMP, IC50
T3 construct: expressed in transfected cells; host or cells: CHO
T3 sequence (P30542 1-326): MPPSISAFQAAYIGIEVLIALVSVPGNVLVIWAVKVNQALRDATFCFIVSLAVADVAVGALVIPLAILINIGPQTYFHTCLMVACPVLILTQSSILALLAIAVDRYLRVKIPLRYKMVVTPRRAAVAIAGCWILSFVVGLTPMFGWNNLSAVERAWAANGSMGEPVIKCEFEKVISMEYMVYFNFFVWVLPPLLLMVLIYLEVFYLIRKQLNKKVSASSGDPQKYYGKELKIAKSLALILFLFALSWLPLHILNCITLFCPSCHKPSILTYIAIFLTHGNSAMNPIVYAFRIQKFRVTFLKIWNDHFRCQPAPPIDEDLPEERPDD
Method: as §1, §3, §2

human A2A receptor = human A2A receptor (Homo sapiens, UniProt P29274); assay: Functional A2A receptor activity, recombinant HEK293 cells, cAMP (HTRF), agonist NECA; design: expressed in transfected cells; host or cells: HEK293; details: read-out: Functional A2A receptor activity, HEK293, cAMP, IC50
Sequence of human A2A receptor (P29274 whole entry): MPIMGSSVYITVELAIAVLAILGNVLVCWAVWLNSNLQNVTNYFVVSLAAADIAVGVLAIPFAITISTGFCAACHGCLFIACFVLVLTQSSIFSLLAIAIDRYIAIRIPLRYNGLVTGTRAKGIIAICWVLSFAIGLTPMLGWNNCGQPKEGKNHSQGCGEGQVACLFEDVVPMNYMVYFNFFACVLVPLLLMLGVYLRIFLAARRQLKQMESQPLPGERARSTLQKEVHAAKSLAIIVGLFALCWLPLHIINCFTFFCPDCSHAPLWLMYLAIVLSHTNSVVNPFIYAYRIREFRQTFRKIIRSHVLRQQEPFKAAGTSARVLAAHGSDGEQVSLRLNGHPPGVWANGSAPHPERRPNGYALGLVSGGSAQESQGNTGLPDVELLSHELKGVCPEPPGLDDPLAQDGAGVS
Method: as §1, §2

Row | SMILES | pIC50 (human A2B receptor) | pIC50 (human A3 receptor) | pIC50 (human A1 receptor) | pIC50 (human A2A receptor) | pIC50 (human A3 receptor; cAMP)
1 | COc1nc(F)c(N2CCOCC2)c2sc(NC(=O)C3CC3)nc12 [Compound 4, Cyclopropanecarboxylic acid (6-fluoro-4-methoxy-7-morpholin-4-yl-thiazolo[4,5-c]pyridin-2-yl)-amide] | > 8.00 | > 6.00 | < 6.00 | > 8.00 | 
2 | COc1ncc(-c2ccc3cc[nH]c3c2)c2sc(NC(=O)N3CCC4(CCOCC4)C3)nc12 [Compound 9, N-[7-(1H-indol-6-yl)-4-methoxy-[1,3]thiazolo[4,5-c]pyridin-2-yl]-8-oxa-2-azaspiro[4.5]decane-2-carboxamide] | > 7.00 | < 6.00 | < 6.00 | > 8.00 | 
3 | COc1nc(F)c(N2CCOCC2)c2sc(NC(=O)N3CCC4(CCOC4)C3)nc12 (stereo not shown) [Compound 16, N-[6-fluoro-4-methoxy-7-(morpholin-4-yl)-[1,3]thiazolo[4,5-c]pyridin-2-yl]-2-oxa-7-azaspiro[4.4]nonane-7-carboxamide] | > 7.00 | < 6.00 | < 6.00 | > 8.00 | 
4 | COCCNc1ncc(C(=O)Nc2nc3c(OC)ncc(C4CCOCC4)c3s2)s1 [Compound 17, N-[4-methoxy-7-(oxan-4-yl)-[1,3]thiazolo[4,5-c]pyridin-2-yl]-2-[(2-methoxyethyl)amino]-1,3-thiazole-5-carboxamide] | > 8.00 | < 6.00 | > 6.00 | > 8.00 | 
5 | COCCn1cc(C(=O)Nc2nc3c(OC)nc(F)c(C4CCOCC4)c3s2)cn1 [Compound 22, N-[6-fluoro-4-methoxy-7-(oxan-4-yl)-[1,3]thiazolo[4,5-c]pyridin-2-yl]-1-(2-methoxyethyl)-1H-pyrazole-4-carboxamide] | > 8.00 | > 6.00 | > 6.00 | > 8.00 | 
6 | COc1nc(F)c(C2CCOCC2)c2sc(NC(=O)c3cnn(C)c3)nc12 [Compound 23, N-[6-fluoro-4-methoxy-7-(oxan-4-yl)-[1,3]thiazolo[4,5-c]pyridin-2-yl]-1-methyl-1H-pyrazole-4-carboxamide] | > 8.00 | < 6.00 | > 6.00 | > 8.00 | 
7 | COc1nc(F)c(-c2ccc(F)cc2)c2sc(NC(=O)N3CCC(C)(O)CC3)nc12 [Compound 27, 4-Hydroxy-4-methyl-piperidine-1-carboxylic acid [6-fluoro-7-(4-fluoro-phenyl)-4-methoxy-thiazolo[4,5-c]pyridin-2-yl]-amide] | > 8.00 | < 6.00 | > 6.00 | > 8.00 | 
8 | COc1ncc(-c2cnn(C[C@H]3CCCOC3)c2)c2sc(NC(=O)N3CCC4(CCOCC4)C3)nc12 [Compound 104, 8-Oxa-2-aza-spiro[4.5]decane-2-carboxylic acid (4-methoxy-7-{1-[(R)-1-(tetrahydro-pyran-3-yl)methyl]-1H-pyrazol-4-yl}-thiazolo[4,5-c]pyridin-2-yl)-amide] | > 7.00 | < 6.00 |  | > 8.00 | 
9 | COc1ncc(-c2cnn(C[C@@H]3CCCOC3)c2)c2sc(NC(=O)N3CCC4(CCOCC4)C3)nc12 [Compound 105, 8-Oxa-2-aza-spiro[4.5]decane-2-carboxylic acid (4-methoxy-7-{1-[(S)-1-(tetrahydro-pyran-3-yl)methyl]-1H-pyrazol-4-yl}-thiazolo[4,5-c]pyridin-2-yl)-amide] | > 7.00 | < 6.00 |  | > 8.00 | 
10 | COc1ncc(-c2cnn(Cc3cccnc3)c2)c2sc(NC(=O)c3ccc(C(=O)O)cc3)nc12 [Compound 115, 4-[(4-methoxy-7-{1-[(pyridin-3-yl)methyl]-1H-pyrazol-4-yl}-[1,3]thiazolo[4,5-c]pyridin-2-yl)carbamoyl]benzoic acid] | > 8.00 | > 6.00 |  | > 8.00 | 
11 | COc1ncc(C2=CCOCC2)c2sc(NC(=O)c3cn[nH]c3)nc12 [Compound 116, N-[7-(3,6-dihydro-2H-pyran-4-yl)-4-methoxy-[1,3]thiazolo[4,5-c]pyridin-2-yl]-1H-pyrazole-4-carboxamide] | > 8.00 | > 6.00 |  | > 8.00 | 
12 | COc1ncc(-c2ccccc2)c2sc(NC(=O)c3cn[nH]c3)nc12 [Compound 117, N-{4-methoxy-7-phenyl-[1,3]thiazolo[4,5-c]pyridin-2-yl}-1H-pyrazole-4-carboxamide] | > 8.00 | > 6.00 |  | > 8.00 | 
13 | COc1ncc(-c2cnn(C[C@@H]3CCCCO3)c2)c2sc(NC(=O)N3CCC4(CCOCC4)C3)nc12 [Compound 118, 8-Oxa-2-aza-spiro[4.5]decane-2-carboxylic acid (4-methoxy-7-{1-[(S)-1-(tetrahydro-pyran-2-yl)methyl]-1H-pyrazol-4-yl}-thiazolo[4,5-c]pyridin-2-yl)-amide] | > 7.00 | < 6.00 |  | > 8.00 | 
14 | COc1ncc(-c2cnn(C[C@H]3CCCCO3)c2)c2sc(NC(=O)N3CCC4(CCOCC4)C3)nc12 [Compound 119, 8-Oxa-2-aza-spiro[4.5]decane-2-carboxylic acid (4-methoxy-7-{1-[(R)-1-(tetrahydro-pyran-2-yl)methyl]-1H-pyrazol-4-yl}-thiazolo[4,5-c]pyridin-2-yl)-amide] | > 7.00 | < 6.00 |  | > 8.00 | 
15 | COc1ncc(-c2cccc(NS(C)(=O)=O)c2)c2sc(NC(=O)N3CCC4(CCOCC4)C3)nc12 [Compound 120, 8-Oxa-2-aza-spiro[4.5]decane-2-carboxylic acid [7-(3-methanesulfonylamino-phenyl)-4-methoxy-thiazolo[4,5-c]pyridin-2-yl]-amide] |  | < 6.00 | < 6.00 | > 7.00 | 
16 | COc1ncc(C2=CCOCC2)c2sc(NC(=O)c3ccc(C(=O)NCCN4CCC4)cc3)nc12 [Compound 139, N-(2-Azetidin-1-yl-ethyl)-N′-[7-(3,6-dihydro-2H-pyran-4-yl)-4-methoxy-thiazolo[4,5-c]pyridin-2-yl]-terephthalamide] | > 7.00 | < 6.00 |  | > 8.00 | 
17 | COc1ncc(C2=CCOCC2)c2sc(NC(=O)c3cnn(Cc4ncc[nH]4)c3)nc12 [Compound 158, 1-(1H-Imidazol-2-ylmethyl)-1H-pyrazole-4-carboxylic acid [7-(3,6-dihydro-2H-pyran-4-yl)-4-methoxy-thiazolo[4,5-c]pyridin-2-yl]-amide] | > 8.00 | < 6.00 |  | > 8.00 | 
18 | COc1ncc(-c2cnn(C(C)(C)c3ccccc3)c2)c2sc(NC(=O)N3CCC4(CCOCC4)C3)nc12 [Compound 163, 8-Oxa-2-aza-spiro[4.5]decane-2-carboxylic acid {4-methoxy-7-[1-(1-methyl-1-phenyl-ethyl)-1H-pyrazol-4-yl]-thiazolo[4,5-c]pyridin-2-yl}-amide] | > 7.00 | < 6.00 |  | > 8.00 | 
19 | COC(=O)N(C)Cc1ccc(C(=O)Nc2nc3c(OC)ncc(C4=CCOCC4)c3s2)cc1 [Compound 167, {4-[7-(3,6-Dihydro-2H-pyran-4-yl)-4-methoxy-thiazolo[4,5-c]pyridin-2-ylcarbamoyl]-benzyl}-methyl-carbamic acid methyl ester] | > 8.00 | < 6.00 |  | > 8.00 | 
20 | COc1cnc(N2CCOCC2)c2sc(NC(=O)N3CCC4(CCN(C)C4=O)CC3)nc12 [drawing 186, reference compound] | < 6.00 |  |  | > 7.00 | < 6.00
